The values that follow come from patent publication US20230201207A1, “COMBINATION CANCER THERAPY USING N2-QUINOLINE OR ISOQUINOLINE SUBSTITUTED PURINE DERIVATIVES” (SHANGHAI HUAYU BIOTECHNOLOGY CO., LTD., priority 2020, published 2023).

The subject of data set [1] is PDGFR. As to the kind of experiment: Inhibition of PDGFR phosphorylation. Type of data set: biochemical. The source says: (§1) FLT3 is a class III receptor tyrosine kinase and plays an important role in hematopoiesis and lymphocyte development. […] Wang et al found over 60% of 82 leukemia cell lines were FLT3 positive (Wang Y et al., (2006) Journal of Experimental Hematology 14(3): 446-449). […] Thus, the compounds of the disclosure with high inhibitory effect on FLT3 function may be good candidates for leukemia treatment.

Data set [2] has as its system AKT. The experiment in a line: Inhibition of AKT phosphorylation. Type of data set: biochemical.
Description: as §1

For data set [3], the system named is CT-26 WT cells. As to the kind of experiment: Anti-tumor effect in CT-26 WT tumor-bearing BALB/c mice. Type of data set: in vivo. The following applies: for Average tumor size: Anti-m-PD-1 10 mg/kg I.P., Compound A 40 mg/kg P.O. Here is the method:
(§2) CT-26 WT cells were maintained at 37° C. in 5% CO2 in RPMI 1640 medium (10-040-CV, Corning cellgro) supplemented with 10% FBS (10270-106, GIBCO) and used before the 10th subculture. At Day 0, 45 BALB/c female mice, 5-6 weeks old, were each subcutaneously injected with about 200.0 μL. of the CT-26 WT cell medium containing about 5×10^5 cells.
(§3) At Day 9, 32 tumor-bearing mice were randomly allocated to four groups according to their tumor volumes, 8 mice per group. The rest were subject to euthanasia.
(§4) The four groups of animals were administered with an anti-m-PD-1 antibody (BE0146, BioXcell) in PBS (21-040-CVR, BioXcell) at 1.0 mg/mL, Compound A in saline at 4.0 mg/mL, the anti-m-PD-1 antibody in combination with Compound A, and the control vehicle (saline), respectively, at doses shown in Table 1 below.
(§5) Mice were observed every day for their physical conditions and activities, and mice body weight and tumor volume were measured every Tuesday, Thursday and Sunday. The tumor volume (V) was calculated as (length×width^2)/2.
(§6) At Day 23, mice were subject to euthanasia, from which tumors were collected, weighed and photographed. Mice body weights, tumor sizes and tumor weights were analyzed using the t-test in SPSS, and group differences were deemed statistically significant when the p-value was 0.05 or less.
Tumor growth inhibition (TGI) was calculated based on tumor weight or tumor volume. Further, Zheng-Jun Jin's Q value was calculated using the formula Q=EA+B/(EA+EB−EA×EB) to assess the combined effect of the anti-PD-1 antibody and Compound A, wherein EA+B, EA, and EB referred to the TGIs of the combination therapy, anti-PD-1 administration and Compound A administration, respectively. A Q value higher than 1.15 indicated a synergistic or additive effect.

Data set [4] in a line: Body weight and survival of CT-26 WT tumor-bearing BALB/c mice. Type of data set: in vivo. The conditions noted are these: for Average body weight: Anti-m-PD-1 10 mg/kg I.P., Compound A 40 mg/kg P.O. Here is the method: as §2, §3, §4, §5, §6
In data set [5] the target is PI3K α isoform (Homo sapiens, UniProt P42336).
Chain of PI3K α isoform (P42336 whole entry, canonical isoform): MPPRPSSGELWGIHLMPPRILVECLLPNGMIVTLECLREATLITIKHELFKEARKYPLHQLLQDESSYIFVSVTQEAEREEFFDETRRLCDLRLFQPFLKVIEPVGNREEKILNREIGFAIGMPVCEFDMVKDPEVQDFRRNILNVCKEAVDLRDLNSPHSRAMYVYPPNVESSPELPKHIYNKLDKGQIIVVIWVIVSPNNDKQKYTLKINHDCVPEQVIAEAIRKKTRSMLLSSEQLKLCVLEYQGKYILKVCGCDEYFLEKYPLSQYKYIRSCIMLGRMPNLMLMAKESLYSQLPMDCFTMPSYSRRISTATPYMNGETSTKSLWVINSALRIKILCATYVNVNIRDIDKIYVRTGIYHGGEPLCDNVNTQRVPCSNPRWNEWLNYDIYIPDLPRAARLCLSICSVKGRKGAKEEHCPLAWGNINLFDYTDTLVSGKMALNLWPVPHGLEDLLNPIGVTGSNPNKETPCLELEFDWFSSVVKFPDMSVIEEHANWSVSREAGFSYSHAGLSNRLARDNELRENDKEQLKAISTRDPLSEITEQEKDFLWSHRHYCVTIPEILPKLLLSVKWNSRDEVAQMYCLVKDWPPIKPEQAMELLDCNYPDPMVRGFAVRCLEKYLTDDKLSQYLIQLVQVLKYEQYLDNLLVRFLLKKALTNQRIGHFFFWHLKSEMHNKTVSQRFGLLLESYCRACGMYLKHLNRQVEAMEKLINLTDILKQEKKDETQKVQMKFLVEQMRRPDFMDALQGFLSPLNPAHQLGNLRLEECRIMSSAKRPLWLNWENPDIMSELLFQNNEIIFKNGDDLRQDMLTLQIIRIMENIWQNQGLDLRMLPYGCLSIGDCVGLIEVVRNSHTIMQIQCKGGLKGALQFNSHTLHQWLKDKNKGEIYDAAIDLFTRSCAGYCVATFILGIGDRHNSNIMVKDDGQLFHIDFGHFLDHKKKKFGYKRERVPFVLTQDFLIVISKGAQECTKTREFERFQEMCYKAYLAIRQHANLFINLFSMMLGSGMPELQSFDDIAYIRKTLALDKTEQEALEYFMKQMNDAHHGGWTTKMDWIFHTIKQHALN
Chain of PI3K α isoform (P27986 whole entry partner, canonical isoform): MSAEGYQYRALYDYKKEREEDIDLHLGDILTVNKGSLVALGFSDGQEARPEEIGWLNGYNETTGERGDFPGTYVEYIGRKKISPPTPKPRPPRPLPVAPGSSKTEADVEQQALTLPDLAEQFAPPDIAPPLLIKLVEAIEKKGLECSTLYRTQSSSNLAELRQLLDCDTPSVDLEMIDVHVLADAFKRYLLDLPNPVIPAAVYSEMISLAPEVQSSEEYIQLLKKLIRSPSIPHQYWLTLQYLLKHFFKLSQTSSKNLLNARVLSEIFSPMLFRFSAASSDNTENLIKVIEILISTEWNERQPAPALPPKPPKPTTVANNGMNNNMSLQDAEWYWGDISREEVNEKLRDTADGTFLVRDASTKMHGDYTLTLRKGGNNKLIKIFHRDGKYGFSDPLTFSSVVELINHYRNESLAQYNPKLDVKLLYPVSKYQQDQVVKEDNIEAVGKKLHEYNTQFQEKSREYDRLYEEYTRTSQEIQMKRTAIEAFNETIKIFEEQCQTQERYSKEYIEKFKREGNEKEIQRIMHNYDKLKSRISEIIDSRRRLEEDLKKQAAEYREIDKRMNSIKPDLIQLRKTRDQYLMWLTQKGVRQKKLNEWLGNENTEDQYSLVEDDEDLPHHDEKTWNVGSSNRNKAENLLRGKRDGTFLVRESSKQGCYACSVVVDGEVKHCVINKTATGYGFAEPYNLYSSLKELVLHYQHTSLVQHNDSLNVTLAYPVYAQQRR
Data set [6] has as its target PI3K β isoform (Homo sapiens, UniProt P42338).
Data set [7] concerns the target PI3K γ isoform (Homo sapiens, UniProt P48736). As to the kind of experiment: PI3K isoform inhibition, γ isoform (method of CN104513254A).
For data set [8] the following is noted: human, in vivo; cited from earlier work.

Chain of PI3K β isoform (P42338 whole entry, canonical isoform): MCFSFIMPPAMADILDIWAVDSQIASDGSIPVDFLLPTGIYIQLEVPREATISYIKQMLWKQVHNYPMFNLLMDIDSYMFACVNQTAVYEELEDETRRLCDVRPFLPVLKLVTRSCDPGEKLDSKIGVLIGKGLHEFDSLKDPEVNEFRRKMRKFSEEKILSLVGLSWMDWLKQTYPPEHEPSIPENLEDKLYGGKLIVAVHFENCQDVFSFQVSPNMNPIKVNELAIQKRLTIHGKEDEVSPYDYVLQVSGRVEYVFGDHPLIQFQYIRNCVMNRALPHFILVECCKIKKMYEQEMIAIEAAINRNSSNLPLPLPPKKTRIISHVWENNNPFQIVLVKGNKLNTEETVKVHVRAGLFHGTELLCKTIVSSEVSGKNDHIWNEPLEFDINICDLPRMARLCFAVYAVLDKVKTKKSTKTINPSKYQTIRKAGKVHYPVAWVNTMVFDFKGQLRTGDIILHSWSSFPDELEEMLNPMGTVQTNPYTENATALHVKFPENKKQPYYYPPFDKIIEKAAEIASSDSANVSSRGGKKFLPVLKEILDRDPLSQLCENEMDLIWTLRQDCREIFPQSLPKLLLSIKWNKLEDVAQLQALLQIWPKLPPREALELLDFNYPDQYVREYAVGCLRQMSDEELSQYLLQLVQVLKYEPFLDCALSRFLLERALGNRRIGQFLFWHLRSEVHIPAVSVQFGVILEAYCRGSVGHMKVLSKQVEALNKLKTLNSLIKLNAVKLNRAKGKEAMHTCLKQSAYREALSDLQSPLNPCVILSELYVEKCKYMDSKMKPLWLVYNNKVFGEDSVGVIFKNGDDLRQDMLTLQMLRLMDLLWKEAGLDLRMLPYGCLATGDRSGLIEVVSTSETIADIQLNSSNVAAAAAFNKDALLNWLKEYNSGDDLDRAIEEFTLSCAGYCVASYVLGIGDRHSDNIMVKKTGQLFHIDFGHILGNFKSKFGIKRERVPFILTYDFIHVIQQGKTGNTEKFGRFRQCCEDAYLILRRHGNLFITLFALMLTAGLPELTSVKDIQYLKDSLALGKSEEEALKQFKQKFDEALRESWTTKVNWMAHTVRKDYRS
Chain of PI3K β isoform (P27986 whole entry partner, canonical isoform): as the sequence (P27986 whole entry partner, canonical isoform) above
Chain of PI3K γ isoform (P48736 whole entry, canonical isoform): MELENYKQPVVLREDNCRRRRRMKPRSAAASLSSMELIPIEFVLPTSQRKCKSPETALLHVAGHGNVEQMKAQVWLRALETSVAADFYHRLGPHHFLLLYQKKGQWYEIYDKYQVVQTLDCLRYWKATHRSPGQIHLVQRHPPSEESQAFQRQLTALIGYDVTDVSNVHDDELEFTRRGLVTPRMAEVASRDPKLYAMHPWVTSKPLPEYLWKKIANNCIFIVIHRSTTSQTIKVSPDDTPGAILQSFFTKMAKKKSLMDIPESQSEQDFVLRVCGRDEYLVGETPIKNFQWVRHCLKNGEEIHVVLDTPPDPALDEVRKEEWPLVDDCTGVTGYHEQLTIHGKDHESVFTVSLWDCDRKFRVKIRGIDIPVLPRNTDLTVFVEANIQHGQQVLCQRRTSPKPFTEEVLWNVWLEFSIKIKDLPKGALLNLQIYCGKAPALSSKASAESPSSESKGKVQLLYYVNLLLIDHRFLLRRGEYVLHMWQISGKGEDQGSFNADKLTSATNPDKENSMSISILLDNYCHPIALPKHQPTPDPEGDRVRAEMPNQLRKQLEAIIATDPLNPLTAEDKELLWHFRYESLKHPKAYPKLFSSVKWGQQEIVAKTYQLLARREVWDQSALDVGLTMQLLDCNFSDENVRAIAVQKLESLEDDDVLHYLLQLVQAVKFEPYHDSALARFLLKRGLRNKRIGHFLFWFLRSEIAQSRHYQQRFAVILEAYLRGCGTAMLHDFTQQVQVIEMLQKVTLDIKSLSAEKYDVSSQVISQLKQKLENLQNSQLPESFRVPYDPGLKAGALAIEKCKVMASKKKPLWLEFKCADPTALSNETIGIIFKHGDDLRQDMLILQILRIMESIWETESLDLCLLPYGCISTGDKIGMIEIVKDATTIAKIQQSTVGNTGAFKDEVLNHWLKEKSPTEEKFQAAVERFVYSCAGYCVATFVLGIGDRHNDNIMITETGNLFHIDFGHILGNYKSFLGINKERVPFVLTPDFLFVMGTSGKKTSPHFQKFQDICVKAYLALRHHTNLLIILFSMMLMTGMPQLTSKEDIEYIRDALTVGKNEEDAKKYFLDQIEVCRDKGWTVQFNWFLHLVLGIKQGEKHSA

As usually defined, the EC50 is the concentration at which the effect is half-maximal. In the case of `c1cnc2ccc(Nc3nc(NC4CC4)c4nc[nH]c4n3)cc2c1` [Compound A], the EC50 in data set [1] was approximately 1000 nM; in data set [2] it was approximately 100 nM. Further, the Average tumor size in data set [3] (Day 9 (allocation)) is recorded as 176.94 mm^3; in data set [3] (Day 10) it was 272.49 mm^3; in data set [3] (Day 12), 492.26 mm^3; in data set [3] (Day 14) it was 672.51 mm^3; in data set [3] (Day 16) it was 876.22 mm^3; in data set [3] (Day 18), 1099.45 mm^3. Further, the values for the Average tumor size in data set [3] (Day 20), in data set [3] (Day 22) and in data set [3] (Day 23) were 1348.89 mm^3, 1698.25 mm^3 and 1870.89 mm^3, respectively. Also, the “Tumor volume based TGI” value in data set [3] (Day 23) turned out to be 19.35%. The “Tumor weight based TGI” value in data set [3] (Day 23) is 31.71%. For the same compound, the “Tumor weight, Average” value in data set [3] (group average at Day 23, 8 mice) came to 1.93 g. Moreover, the “Tumor weight, Mouse no. 1” value in data set [3] (individual tumor isolated at Day 23, Mouse no. 1) was 1.14 g. In addition, the “Tumor weight, Mouse no. 2” value in data set [3] (individual tumor isolated at Day 23, Mouse no. 2) was 2.11 g. In data set [3] (individual tumor isolated at Day 23, Mouse no. 3), the “Tumor weight, Mouse no. 3” value is given as 2.11 g. In addition, the “Tumor weight, Mouse no. 4” value in data set [3] (individual tumor isolated at Day 23, Mouse no. 4) came out at 0.89 g. The “Tumor weight, Mouse no. 5” value in data set [3] (individual tumor isolated at Day 23, Mouse no. 5) is reported as 1.68 g. In data set [3] (individual tumor isolated at Day 23, Mouse no. 6), the “Tumor weight, Mouse no. 6” value was 2.16 g. Also, the “Tumor weight, Mouse no. 7” value in data set [3] (individual tumor isolated at Day 23, Mouse no. 7) stood at 2.73 g. Moreover, the “Tumor weight, Mouse no. 8” value in data set [3] (individual tumor isolated at Day 23, Mouse no. 8) came out at 2.64 g. The Average body weight in data set [4] (Day 9 (allocation)) is given as 15.59 g; in data set [4] (Day 10) it was 15.16 g; in data set [4] (Day 12) it was 15.86 g; in data set [4] (Day 14), 15.91 g; in data set [4] (Day 16), 16.46 g; in data set [4] (Day 18), 16.75 g. Moreover, the results for the Average body weight in data set [4] (Day 20), in data set [4] (Day 22) and in data set [4] (Day 23) were 17.01 g, 17.72 g and 18.15 g, respectively. In addition, the “Mice weight with the tumor weight deducted” value in data set [4] (Day 23) is recorded as 16.22 g. Also, the “EC50, PI3K α isoform inhibition” value in data set [5] was “μM level”. Moreover, in data set [6], the “EC50, PI3K β isoform inhibition” value is on record as “μM level”. In addition, the “EC50, PI3K γ isoform inhibition” value in data set [7] was “μM level”.
Take Ipilimumab: the “Patients who experienced immune-related adverse effects” value in data set [8] was 64%.
